Source: ChEMBL document CHEMBL4052759, “Discovery of DS79182026: A potent orally active hepcidin production inhibitor” (Bioorg Med Chem Lett, 2017)

How the values were obtained:
Homo sapiens [1] = species: Homo sapiens; assay: Inhibition of p70S6K (unknown origin) at 0.49 uM relative to control
Homo sapiens [2] = species: Homo sapiens; assay: Inhibition of PKA (unknown origin) at 0.49 uM relative to control
[3] = target: Ephrin type-B receptor 2 (Homo sapiens) (UniProt P29323); assay: Inhibition of EPHB2 (unknown origin) at 0.49 uM relative to control
[4] = target: Protein kinase C iota type (Homo sapiens) (UniProt P41743); assay: Inhibition of PKC-iota (unknown origin) at 0.49 uM relative to control
[5] = target: Dual specificity tyrosine-phosphorylation-regulated kinase 2 (Homo sapiens) (UniProt Q92630); assay: Inhibition of DYRK2 (unknown origin) at 0.49 uM relative to control
Sequence of Dual specificity tyrosine-phosphorylation-regulated kinase 2 (Homo sapiens) (Q92630 whole entry): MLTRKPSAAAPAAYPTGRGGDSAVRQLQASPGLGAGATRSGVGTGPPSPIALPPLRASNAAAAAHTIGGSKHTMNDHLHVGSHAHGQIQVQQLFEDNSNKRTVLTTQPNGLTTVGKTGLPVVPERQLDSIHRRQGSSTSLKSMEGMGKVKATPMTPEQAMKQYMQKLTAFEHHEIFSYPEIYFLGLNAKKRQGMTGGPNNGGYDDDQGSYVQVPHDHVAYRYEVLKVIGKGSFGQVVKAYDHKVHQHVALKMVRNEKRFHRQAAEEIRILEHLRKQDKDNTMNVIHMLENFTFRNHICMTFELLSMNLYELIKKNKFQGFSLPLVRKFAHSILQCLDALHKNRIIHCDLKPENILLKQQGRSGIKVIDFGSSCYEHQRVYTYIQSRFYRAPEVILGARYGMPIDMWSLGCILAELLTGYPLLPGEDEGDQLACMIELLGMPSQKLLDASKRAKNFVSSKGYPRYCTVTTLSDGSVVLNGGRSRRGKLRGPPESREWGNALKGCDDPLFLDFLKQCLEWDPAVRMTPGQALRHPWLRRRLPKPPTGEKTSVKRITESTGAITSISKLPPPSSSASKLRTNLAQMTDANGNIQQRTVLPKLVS

[6] = target: Glycogen synthase kinase-3 beta (Homo sapiens) (UniProt P49841); assay: Inhibition of GSK3b (unknown origin) at 0.49 uM relative to control
Sequence of Glycogen synthase kinase-3 beta (Homo sapiens) (P49841 whole entry, looked up): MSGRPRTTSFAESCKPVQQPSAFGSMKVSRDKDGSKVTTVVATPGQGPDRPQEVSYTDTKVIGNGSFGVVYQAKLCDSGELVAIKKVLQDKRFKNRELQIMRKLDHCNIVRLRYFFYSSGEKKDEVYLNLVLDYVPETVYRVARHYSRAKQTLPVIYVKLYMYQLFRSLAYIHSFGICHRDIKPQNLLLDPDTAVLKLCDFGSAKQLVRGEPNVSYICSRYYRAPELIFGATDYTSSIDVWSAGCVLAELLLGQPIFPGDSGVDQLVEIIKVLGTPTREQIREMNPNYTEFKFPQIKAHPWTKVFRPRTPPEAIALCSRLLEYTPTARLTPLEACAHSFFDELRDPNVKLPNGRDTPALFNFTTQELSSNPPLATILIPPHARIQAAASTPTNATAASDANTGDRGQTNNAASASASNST

[7] = target: Mitogen-activated protein kinase 12 (Homo sapiens) (UniProt P53778); assay: Inhibition of p38-gamma (unknown origin) at 0.49 uM relative to control
[8] = system: Fibroblast growth factor receptor 1 (Homo sapiens), P11362 [V561M]; assay: Inhibition of FGFR1 V561M mutant (unknown origin) at 0.49 uM relative to control
[9] = target: Tyrosine-protein kinase Fyn (Homo sapiens) (UniProt P06241); assay: Inhibition of FYN (unknown origin) at 0.49 uM relative to control
[10] = target: Tyrosine-protein kinase Lck (Homo sapiens) (UniProt P06239); assay: Inhibition of LCK (unknown origin) at 0.49 uM relative to control
[11] = target: Serine/threonine-protein kinase DCLK2 (Homo sapiens) (UniProt Q8N568); assay: Inhibition of DCAMKL2 (unknown origin) at 0.49 uM relative to control
[12] = target: MAP kinase-interacting serine/threonine-protein kinase 1 (Homo sapiens) (UniProt Q9BUB5); assay: Inhibition of MNK1 (unknown origin) at 0.49 uM relative to control
[13] = target: Tyrosine-protein kinase ABL2 (Homo sapiens) (UniProt P42684); assay: Inhibition of Arg (unknown origin) at 0.49 uM relative to control
[14] = target: Tyrosine-protein kinase Blk (Homo sapiens) (UniProt P51451); assay: Inhibition of BLK (unknown origin) at 0.49 uM relative to control
[15] = target: Tyrosine-protein kinase Mer (Homo sapiens) (UniProt Q12866); assay: Inhibition of Mer (unknown origin) at 0.49 uM relative to control
Homo sapiens [16] = species: Homo sapiens; assay: Inhibition of PKA (unknown origin) at 0.45 uM relative to control
[17] = target: Ephrin type-A receptor 4 (Homo sapiens) (UniProt P54764); assay: Inhibition of EPHA4 (unknown origin) at 0.45 uM relative to control
[18] = target: Ephrin type-A receptor 5 (Homo sapiens) (UniProt P54756); assay: Inhibition of EPHA5 (unknown origin) at 0.45 uM relative to control
[19] = target: Rho-associated protein kinase 1 (Homo sapiens) (UniProt Q13464); assay: Inhibition of ROCK1 (unknown origin) at 0.45 uM relative to control
[20] = target: Serine/threonine-protein kinase Sgk3 (Homo sapiens) (UniProt Q96BR1); assay: Inhibition of SGK3 (unknown origin) at 0.45 uM relative to control
[21] = target: Calcium/calmodulin-dependent protein kinase type II subunit beta (Homo sapiens) (UniProt Q13554); assay: Inhibition of CAMK2 (unknown origin) at 0.45 uM relative to control
Sequence of Calcium/calmodulin-dependent protein kinase type II subunit beta (Homo sapiens) (Q13554 whole entry): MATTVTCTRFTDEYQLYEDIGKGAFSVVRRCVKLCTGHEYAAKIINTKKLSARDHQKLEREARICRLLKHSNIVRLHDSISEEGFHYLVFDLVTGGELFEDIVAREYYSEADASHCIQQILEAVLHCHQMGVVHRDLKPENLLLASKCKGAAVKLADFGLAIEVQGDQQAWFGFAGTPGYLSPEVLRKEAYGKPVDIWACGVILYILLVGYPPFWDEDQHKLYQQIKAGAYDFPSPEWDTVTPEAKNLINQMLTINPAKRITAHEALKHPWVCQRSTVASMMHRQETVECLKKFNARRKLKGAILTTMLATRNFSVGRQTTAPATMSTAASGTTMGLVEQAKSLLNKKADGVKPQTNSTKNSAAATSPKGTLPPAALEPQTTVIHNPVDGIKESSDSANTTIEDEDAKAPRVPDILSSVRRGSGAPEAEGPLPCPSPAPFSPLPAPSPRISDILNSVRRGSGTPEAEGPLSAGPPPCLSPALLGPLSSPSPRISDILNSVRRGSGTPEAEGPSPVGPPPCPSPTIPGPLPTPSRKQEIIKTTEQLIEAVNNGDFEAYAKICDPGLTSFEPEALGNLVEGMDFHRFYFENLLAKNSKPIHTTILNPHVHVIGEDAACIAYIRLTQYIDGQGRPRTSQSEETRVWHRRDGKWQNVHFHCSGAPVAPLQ

[22] = target: Dual specificity tyrosine-phosphorylation-regulated kinase 2 (Homo sapiens) (UniProt Q92630); assay: Inhibition of DYRK2 (unknown origin) at 0.45 uM relative to control
[23] = target: Mitogen-activated protein kinase 1 (Homo sapiens) (UniProt P28482); assay: Inhibition of Erk2 (unknown origin) at 0.45 uM relative to control
[24] = target: Homeodomain-interacting protein kinase 3 (Homo sapiens) (UniProt Q9H422); assay: Inhibition of HIPK3 (unknown origin) at 0.45 uM relative to control
[25] = target: Serine/threonine-protein kinase PAK 2 (Homo sapiens) (UniProt Q13177); assay: Inhibition of PAK2 (unknown origin) at 0.45 uM relative to control
[26] = system: Mast/stem cell growth factor receptor Kit (Homo sapiens), P10721 [T670I]; assay: Inhibition of KIT T670I mutant (unknown origin) at 0.45 uM relative to control
[27] = target: Tyrosine-protein kinase TXK (Homo sapiens) (UniProt P42681); assay: Inhibition of TXK (unknown origin) at 0.45 uM relative to control
Sequence of Tyrosine-protein kinase TXK (Homo sapiens) (P42681 whole entry): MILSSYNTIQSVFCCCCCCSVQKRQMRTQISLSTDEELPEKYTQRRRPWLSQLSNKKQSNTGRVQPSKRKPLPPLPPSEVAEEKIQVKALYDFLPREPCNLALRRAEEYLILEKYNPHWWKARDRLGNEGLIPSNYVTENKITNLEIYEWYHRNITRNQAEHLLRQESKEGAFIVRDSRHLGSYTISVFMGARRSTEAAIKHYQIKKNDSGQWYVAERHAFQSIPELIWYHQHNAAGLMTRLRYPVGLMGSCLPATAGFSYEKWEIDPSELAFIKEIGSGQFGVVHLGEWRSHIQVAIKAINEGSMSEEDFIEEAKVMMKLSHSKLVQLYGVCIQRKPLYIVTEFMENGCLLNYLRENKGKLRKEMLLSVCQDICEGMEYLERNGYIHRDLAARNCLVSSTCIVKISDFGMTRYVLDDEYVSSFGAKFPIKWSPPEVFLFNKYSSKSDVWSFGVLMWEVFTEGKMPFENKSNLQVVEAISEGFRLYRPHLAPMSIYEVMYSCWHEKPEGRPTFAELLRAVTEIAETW

[28] = system: Leucine-rich repeat serine/threonine-protein kinase 2 (Homo sapiens), Q5S007 [G2019S]; assay: Inhibition of LRRK2 G2019S mutant (unknown origin) at 0.45 uM relative to control
Sequence of Leucine-rich repeat serine/threonine-protein kinase 2 (Homo sapiens), Q5S007 [G2019S] (Q5S007 whole entry G2019S): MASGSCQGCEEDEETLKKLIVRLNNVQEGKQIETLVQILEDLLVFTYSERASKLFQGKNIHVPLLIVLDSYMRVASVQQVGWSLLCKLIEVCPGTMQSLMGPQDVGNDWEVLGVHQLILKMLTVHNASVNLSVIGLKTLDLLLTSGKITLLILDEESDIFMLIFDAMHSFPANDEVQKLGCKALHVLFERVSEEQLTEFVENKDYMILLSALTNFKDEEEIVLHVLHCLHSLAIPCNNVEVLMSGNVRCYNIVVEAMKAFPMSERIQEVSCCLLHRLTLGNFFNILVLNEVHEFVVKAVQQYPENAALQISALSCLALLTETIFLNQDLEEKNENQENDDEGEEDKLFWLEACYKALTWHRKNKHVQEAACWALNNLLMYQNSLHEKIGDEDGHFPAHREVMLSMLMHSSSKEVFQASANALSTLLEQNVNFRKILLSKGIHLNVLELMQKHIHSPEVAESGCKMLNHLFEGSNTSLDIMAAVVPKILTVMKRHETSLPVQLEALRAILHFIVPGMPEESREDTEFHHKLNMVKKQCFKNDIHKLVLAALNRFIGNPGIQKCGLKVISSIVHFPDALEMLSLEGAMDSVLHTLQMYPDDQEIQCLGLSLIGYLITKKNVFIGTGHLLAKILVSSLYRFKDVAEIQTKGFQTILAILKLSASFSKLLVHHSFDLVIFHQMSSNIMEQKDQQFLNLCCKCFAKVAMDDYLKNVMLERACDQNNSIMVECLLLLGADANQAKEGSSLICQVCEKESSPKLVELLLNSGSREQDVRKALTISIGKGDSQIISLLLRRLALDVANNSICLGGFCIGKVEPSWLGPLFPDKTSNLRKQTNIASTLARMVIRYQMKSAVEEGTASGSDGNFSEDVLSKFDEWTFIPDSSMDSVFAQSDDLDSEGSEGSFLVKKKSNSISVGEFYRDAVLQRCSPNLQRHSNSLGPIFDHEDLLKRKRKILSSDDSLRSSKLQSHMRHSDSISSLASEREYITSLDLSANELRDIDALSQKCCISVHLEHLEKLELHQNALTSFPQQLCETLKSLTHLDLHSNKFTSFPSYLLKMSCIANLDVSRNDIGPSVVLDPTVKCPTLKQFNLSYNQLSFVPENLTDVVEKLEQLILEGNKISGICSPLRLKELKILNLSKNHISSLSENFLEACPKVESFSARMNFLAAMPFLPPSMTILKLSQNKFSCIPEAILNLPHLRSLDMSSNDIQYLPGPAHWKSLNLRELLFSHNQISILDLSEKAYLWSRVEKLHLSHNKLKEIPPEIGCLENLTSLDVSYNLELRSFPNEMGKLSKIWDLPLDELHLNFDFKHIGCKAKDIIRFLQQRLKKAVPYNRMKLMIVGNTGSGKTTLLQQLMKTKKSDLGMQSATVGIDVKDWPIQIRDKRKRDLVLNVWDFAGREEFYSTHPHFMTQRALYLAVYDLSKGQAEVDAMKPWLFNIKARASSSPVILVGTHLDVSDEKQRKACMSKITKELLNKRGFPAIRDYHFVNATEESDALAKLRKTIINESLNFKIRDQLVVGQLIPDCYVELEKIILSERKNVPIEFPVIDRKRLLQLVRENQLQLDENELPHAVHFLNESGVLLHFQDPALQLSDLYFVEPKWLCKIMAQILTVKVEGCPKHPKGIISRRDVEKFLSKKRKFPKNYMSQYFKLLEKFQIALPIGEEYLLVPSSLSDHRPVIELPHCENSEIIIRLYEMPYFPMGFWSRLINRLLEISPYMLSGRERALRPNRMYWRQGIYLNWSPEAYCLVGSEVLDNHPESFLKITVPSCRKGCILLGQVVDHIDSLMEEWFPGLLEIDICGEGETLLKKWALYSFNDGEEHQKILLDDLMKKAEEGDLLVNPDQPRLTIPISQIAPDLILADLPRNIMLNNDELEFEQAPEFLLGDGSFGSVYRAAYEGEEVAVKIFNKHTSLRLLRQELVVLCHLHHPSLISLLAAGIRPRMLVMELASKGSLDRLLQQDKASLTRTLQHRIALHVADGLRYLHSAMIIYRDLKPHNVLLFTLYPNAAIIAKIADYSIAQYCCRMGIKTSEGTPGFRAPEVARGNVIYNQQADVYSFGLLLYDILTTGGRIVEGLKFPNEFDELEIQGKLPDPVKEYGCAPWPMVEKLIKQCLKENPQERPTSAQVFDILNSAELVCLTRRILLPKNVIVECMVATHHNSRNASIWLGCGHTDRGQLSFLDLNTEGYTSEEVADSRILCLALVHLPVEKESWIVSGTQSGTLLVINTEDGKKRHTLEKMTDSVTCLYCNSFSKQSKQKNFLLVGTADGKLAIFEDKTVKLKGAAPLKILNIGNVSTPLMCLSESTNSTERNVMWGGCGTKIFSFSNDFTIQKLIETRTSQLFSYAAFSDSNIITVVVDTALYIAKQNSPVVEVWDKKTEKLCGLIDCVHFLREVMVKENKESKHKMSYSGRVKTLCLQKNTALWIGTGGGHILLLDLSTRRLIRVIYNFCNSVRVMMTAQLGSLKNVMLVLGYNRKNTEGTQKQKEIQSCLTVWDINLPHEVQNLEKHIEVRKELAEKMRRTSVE

[29] = Unbound fraction in po dosed C57BL/6J mouse plasma by LC-MS/MS analysis; assay type: ADME, organism-based
[30] = target: Glycogen synthase kinase-3 beta (Homo sapiens) (UniProt P49841); assay: Inhibition of GSK3b (unknown origin) at 0.078 uM relative to control
[31] = target: Mitogen-activated protein kinase 14 (Homo sapiens) (UniProt Q16539); assay: Inhibition of p38a (unknown origin) at 0.078 uM relative to control
Sequence of Mitogen-activated protein kinase 14 (Homo sapiens) (Q16539 whole entry): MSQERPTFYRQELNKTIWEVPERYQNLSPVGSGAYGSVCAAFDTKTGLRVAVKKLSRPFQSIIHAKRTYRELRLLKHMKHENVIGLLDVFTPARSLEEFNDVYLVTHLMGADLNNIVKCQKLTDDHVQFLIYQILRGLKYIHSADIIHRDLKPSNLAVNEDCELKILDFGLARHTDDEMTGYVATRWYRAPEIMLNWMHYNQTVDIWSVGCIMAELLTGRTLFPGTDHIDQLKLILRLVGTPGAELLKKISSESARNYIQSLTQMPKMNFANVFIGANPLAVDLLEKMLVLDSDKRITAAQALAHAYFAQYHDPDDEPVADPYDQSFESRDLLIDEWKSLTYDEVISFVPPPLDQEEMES

[32] = target: Fibroblast growth factor receptor 1 (Homo sapiens) (UniProt P11362); assay: Inhibition of FGFR1 (unknown origin) at 0.078 uM relative to control
[33] = target: Vascular endothelial growth factor receptor 2 (Homo sapiens) (UniProt P35968); assay: Inhibition of KDR (unknown origin) at 0.078 uM relative to control
[34] = target: T1, Interleukin-1 receptor-associated kinase 4 (Homo sapiens) (UniProt Q9NWZ3); assay: Inhibition of IRAK4 (unknown origin) at 0.078 uM relative to control
T1 sequence (whole entry): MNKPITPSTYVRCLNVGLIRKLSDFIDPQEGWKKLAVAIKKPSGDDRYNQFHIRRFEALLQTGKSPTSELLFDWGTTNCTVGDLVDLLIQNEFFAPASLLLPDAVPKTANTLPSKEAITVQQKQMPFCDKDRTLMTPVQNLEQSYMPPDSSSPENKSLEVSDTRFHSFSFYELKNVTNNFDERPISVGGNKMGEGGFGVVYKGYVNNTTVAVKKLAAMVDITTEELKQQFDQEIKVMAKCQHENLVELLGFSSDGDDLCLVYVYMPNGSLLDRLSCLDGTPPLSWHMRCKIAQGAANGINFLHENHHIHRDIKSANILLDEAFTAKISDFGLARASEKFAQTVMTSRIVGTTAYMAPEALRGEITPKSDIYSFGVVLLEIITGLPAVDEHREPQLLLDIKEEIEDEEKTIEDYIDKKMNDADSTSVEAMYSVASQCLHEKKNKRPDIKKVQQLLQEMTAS

For Cc1[nH]nc(C2CC2)c1-c1ccc2c(NC(=O)C3CC3)noc2c1, the inhibition (Homo sapiens [1]) was -5.3%, the inhibition (Homo sapiens [2]) was 2.3% and the inhibition [3] was 5.3%. The inhibition [4] was 1%, the inhibition [5] was 3.3% and the inhibition [6] was 6.7%. The inhibition [7] was -2.3%, the inhibition [8] was 3.7% and the inhibition [9] was 2.7%. For the same compound, the inhibition [10] was 5.7%, the inhibition [11] was 2% and the inhibition [12] was 3%. For the same compound, the inhibition [13] was 7.7%, the inhibition [14] was 1% and the inhibition [15] was 11.3%.
With Cc1n[nH]c(C)c1-c1ccc2c(NC(=O)c3ccc(N4CCN(C)CC4)cc3)n[nH]c2c1 the inhibition (Homo sapiens [16]) was 3%, the inhibition [17] was 0.7% and the inhibition [18] was 3%. It also gave an inhibition [19] of -2%, an inhibition [20] of 3.3% and an inhibition [21] of 19.7%. For the same compound, the inhibition [22] was 8%, the inhibition [23] was -0.3% and the inhibition [24] was 2.7%. The inhibition [25] was -2.7%, the inhibition [26] was -10% and the inhibition [27] was -0.7%. For the same compound, the inhibition [28] was 18.7%.
COC(=O)Nc1noc2cc(-c3c(-c4ccccn4)n[nH]c3C)ccc12 showed a fraction unbound [29] of 0.17, an inhibition [30] of 10% and an inhibition [31] of 5.7%. For the same compound, the inhibition [32] was -2.7%, the inhibition [33] was 17.3% and the inhibition [34] was 5.7%.
